Key:
[1] = molecular target: Mitogen-activated protein kinase 9 (Homo sapiens, UniProt P45984); assay: Selectivity interaction (KinomeScan (DiscoverX)) EUB0000666a MAPK9; conditions: at 10 µM
[2] = molecular target: T1, Serine/threonine-protein kinase ULK1 (Homo sapiens) (UniProt O75385); assay: Selectivity interaction (Kinase panel (KiNativ target engagement assay in Jurkat cells)) EUB0001635a ULK1; format: cell-based; conditions: Selectivity number of off-targets 0.0, Selectivity number of targets 233.0, Source Knowledge https://www.sciencedirect.com/science/article/pii/S2451945619300674?via%3Dihub, at 1 µM
T1 sequence (whole entry): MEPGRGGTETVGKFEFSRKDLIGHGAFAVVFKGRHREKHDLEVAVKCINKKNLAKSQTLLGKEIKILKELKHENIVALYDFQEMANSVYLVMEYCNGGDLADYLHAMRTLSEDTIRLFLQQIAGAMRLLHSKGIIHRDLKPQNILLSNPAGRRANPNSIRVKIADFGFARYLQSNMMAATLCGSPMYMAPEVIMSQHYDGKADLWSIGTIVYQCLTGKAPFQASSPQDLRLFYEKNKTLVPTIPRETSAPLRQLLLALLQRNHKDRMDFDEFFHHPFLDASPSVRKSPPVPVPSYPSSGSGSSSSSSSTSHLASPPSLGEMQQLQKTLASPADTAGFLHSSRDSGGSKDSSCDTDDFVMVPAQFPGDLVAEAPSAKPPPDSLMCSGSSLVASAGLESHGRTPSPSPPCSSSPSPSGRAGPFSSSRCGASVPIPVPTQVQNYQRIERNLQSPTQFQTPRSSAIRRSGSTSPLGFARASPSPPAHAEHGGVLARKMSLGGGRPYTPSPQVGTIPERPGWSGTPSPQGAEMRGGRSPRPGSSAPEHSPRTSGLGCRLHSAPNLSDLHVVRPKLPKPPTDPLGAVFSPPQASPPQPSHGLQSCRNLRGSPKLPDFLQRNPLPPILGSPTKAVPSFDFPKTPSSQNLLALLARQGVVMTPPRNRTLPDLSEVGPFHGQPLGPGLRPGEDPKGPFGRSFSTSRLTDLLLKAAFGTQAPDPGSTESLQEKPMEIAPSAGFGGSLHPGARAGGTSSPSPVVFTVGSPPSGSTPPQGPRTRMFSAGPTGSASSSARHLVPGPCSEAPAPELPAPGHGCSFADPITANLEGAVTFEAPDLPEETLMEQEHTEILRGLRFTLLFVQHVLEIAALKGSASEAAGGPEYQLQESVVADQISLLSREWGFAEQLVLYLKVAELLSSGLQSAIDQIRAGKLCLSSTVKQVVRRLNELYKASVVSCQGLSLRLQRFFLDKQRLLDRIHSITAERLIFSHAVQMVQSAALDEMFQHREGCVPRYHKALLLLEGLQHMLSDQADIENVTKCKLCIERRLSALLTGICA

[3] = molecular target: T2, STE20-related kinase adapter protein alpha (Homo sapiens) (UniProt Q7RTN6); assay: Selectivity interaction (ActivX KiNativ screen (kinase selectivity in THP-1 cell lysates)) EUB0000639a STRADA; format: subcellular; conditions: lysate, at 0.2 µM
T2 sequence (whole entry): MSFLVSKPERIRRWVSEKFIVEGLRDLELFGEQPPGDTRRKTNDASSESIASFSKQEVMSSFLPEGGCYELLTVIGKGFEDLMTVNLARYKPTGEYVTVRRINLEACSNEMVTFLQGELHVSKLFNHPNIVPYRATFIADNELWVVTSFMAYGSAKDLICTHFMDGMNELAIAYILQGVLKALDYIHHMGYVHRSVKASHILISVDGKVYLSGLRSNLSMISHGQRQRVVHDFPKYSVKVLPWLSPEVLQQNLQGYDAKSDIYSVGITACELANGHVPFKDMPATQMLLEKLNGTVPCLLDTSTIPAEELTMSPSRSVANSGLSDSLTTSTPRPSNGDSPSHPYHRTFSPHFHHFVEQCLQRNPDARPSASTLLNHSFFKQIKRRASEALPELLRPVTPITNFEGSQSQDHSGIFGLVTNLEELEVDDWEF

[4] = molecular target: T3, Serine/threonine-protein kinase ULK3 (Homo sapiens) (UniProt Q6PHR2); assay: Selectivity interaction (ActivX KiNativ screen (kinase selectivity in THP-1 cell lysates)) EUB0000639a ULK3; format: subcellular; conditions: lysate, at 5 µM
T3 sequence (whole entry): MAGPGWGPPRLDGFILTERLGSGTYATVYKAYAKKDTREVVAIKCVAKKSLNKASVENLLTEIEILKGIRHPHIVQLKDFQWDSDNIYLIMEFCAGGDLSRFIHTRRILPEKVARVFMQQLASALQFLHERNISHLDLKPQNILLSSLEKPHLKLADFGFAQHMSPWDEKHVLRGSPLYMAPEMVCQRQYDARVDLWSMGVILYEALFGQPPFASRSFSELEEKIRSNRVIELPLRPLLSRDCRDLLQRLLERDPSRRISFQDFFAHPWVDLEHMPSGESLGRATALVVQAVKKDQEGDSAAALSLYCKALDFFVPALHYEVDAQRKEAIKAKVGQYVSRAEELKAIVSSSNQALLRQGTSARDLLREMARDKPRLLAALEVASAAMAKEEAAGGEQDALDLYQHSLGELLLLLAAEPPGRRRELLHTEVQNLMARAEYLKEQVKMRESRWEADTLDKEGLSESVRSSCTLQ

[5] = molecular target: Homeodomain-interacting protein kinase 3 (Homo sapiens, UniProt Q9H422); assay: Selectivity interaction (KinomeScan (DiscoverX)) EUB0000618a HIPK3; conditions: at 10 µM
[6] = molecular target: T4, Serine/threonine-protein kinase Nek11 (Homo sapiens) (UniProt Q8NG66); conditions: at 10 µM
T4 sequence (whole entry): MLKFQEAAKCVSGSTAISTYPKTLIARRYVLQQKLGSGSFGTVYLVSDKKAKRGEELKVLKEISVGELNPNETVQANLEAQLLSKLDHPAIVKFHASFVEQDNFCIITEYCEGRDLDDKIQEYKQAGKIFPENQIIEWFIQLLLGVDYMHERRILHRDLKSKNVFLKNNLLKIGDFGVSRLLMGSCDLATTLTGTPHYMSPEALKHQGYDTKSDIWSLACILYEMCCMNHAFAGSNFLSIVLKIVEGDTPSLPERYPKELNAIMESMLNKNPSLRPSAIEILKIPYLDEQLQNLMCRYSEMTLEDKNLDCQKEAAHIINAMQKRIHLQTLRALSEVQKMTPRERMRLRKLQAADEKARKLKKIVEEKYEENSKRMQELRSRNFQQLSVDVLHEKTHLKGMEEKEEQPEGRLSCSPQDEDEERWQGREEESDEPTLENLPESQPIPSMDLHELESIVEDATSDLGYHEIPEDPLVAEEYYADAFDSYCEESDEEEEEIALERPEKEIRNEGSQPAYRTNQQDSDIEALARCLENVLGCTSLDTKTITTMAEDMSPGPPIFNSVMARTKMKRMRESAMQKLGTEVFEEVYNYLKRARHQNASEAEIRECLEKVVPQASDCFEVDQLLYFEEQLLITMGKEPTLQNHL

[7] = molecular target: Dual specificity mitogen-activated protein kinase kinase 1 (Homo sapiens, UniProt Q02750); assay: Selectivity interaction (KinomeScan (DiscoverX)) EUB0000695a MAP2K1; conditions: at 100 nM
Dual specificity mitogen-activated protein kinase kinase 1, sequence (Q02750 whole entry): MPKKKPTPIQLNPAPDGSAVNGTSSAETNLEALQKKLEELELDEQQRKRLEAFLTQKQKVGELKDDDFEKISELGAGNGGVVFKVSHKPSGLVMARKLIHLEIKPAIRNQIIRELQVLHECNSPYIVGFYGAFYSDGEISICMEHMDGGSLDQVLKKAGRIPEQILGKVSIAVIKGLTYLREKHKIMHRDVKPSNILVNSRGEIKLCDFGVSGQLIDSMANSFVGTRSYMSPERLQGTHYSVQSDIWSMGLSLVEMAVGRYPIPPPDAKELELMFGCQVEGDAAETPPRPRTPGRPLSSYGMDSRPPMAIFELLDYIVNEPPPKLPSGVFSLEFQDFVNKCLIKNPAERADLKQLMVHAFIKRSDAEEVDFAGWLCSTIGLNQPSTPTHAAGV

Homeodomain-interacting protein kinase 3, sequence (Q9H422 whole entry, looked up): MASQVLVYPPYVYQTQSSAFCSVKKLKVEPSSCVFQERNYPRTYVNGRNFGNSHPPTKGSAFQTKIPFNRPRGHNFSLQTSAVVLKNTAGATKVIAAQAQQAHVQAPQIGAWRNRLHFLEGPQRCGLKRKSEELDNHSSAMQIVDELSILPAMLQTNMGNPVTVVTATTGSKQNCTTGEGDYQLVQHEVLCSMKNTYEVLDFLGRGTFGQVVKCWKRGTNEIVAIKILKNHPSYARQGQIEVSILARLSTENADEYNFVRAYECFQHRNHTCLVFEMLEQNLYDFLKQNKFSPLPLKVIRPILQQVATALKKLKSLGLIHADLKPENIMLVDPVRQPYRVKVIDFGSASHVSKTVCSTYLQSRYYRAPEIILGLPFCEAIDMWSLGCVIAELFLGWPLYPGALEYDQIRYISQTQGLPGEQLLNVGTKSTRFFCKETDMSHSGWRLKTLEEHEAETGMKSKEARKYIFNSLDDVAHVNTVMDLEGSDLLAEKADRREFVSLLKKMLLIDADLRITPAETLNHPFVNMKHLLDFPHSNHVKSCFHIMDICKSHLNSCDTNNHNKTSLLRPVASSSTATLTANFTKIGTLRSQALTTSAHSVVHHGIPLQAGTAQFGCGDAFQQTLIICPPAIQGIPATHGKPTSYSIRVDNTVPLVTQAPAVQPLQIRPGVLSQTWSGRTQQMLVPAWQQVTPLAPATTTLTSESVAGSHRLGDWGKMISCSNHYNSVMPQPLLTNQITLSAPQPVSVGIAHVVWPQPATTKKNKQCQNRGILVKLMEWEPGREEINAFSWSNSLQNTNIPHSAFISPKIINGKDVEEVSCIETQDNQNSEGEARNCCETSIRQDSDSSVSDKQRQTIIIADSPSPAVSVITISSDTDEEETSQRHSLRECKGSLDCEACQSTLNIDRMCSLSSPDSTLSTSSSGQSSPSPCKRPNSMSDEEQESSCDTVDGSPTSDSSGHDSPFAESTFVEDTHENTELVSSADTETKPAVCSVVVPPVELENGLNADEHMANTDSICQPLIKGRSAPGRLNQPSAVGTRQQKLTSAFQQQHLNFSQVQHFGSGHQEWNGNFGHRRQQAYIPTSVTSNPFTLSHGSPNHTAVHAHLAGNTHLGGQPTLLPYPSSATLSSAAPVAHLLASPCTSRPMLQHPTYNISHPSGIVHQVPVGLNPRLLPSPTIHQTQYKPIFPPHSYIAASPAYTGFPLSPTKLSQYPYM
Mitogen-activated protein kinase 9, sequence (P45984 whole entry, looked up): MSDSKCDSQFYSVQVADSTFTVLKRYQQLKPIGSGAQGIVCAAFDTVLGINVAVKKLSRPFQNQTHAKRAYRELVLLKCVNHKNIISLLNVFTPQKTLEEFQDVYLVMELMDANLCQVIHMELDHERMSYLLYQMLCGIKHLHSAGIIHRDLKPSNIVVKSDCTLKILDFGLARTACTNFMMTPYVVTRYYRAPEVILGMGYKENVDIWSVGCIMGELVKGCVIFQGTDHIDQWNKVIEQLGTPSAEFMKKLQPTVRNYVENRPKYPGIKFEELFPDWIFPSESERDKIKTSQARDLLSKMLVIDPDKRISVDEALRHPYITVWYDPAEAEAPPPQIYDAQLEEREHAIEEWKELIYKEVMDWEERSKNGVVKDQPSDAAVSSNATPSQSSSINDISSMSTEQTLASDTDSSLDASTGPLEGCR

Q: How did the % of control [1] turn out when O=C(NOC[C@H](O)CO)c1ccc(F)c(F)c1Nc1ccc(I)cc1F was run?
A: 88%

Q: Which % of engagement [2] does the source give for C=CC(=O)Nc1ccc(C(=O)Nc2[nH]nc3c2CN(C(=O)N[C@H](CN(C)C)c2ccccc2)C3(C)C)cc1 here?
A: 5.7%

Q: What does the source list for CC[C@@H]1[C@H](F)C(=O)N[C@@H]1COc1nccc2cc(C(N)=O)c(OC)cc12 [ZIMLOVISERTIB]?
A: % of inhibition [3]: -15.4%; % of inhibition [4]: -10.2%

Q: Which % of control [5] does the source give for O[C@H]1CC[C@H](Nc2ncc3nc(Nc4c(F)cc(F)cc4F)n([C@H]4CCOC4)c3n2)CC1 here?
A: 95%

Q: With Cc1cc([C@@H](C)Nc2ccccc2C(=O)O)c2nc(N3CCOCC3)cc(=O)n2c1 [AZD-6482] as the compound, how does the % of control [6] read?
A: 100%

Q: Cc1cc(F)c(C(=O)Nc2cccc(-c3nncn3C(C)C)n2)cc1-n1cnc(C2CC2)c1 was tested. Which % of control [7] did it give?
A: 100%

Reference: ChEMBL document CHEMBL5465560, “Selectivity Literature for EUbOPEN Chemogenomic Library” (2024)
